{
  "source": "patent US12077503B2",
  "about": "“Substituted cyclic amides and their use as herbicides” (FMC CORPORATION, priority 2015, dated 2024)",
  "type_in_all_cases": "in vivo",
  "key": {"[1]": {"system": "barnyardgrass (Echinochloa crus-galli)", "assay": "Test B flooded paddy test", "conditions": "Echinochloa crus-galli, Flood, 250 g ai/ha; scale of 0 to 100 where 0 is no effect and 100 is complete control; read-out: Barnyardgrass plant response rating", "summary_of_the_method": "(§1)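 Percent control, visually estimated after 13–15 d in the greenhouse on a 0–100 basis, compares treated pots with untreated ones; compound was put into paddy water 3 cm above the soil when plants had two leaves.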"}, "[2]": {"system": "sedge, umbrella (small-flower umbrella sedge, Cyperus difformis)", "assay": "Test B flooded paddy test", "conditions": "Cyperus difformis, Flood, 250 g ai/ha; scale of 0 to 100 where 0 is no effect and 100 is complete control; read-out: Sedge, Umbrella plant response rating", "summary_of_the_method": "as §1"}, "rice (Oryra sativa)": {"system": "rice (Oryra sativa)", "assay": "Test B flooded paddy test", "conditions": "Oryza sativa, Flood, 250 g ai/ha; scale of 0 to 100 where 0 is no effect and 100 is complete control; read-out: Rice plant response rating", "summary_of_the_method": "as §1"}, "[3]": {"system": "ducksalad (Heteranthera limosa)", "assay": "Test B flooded paddy test", "conditions": "Heteranthera limosa, Flood, 250 g ai/ha; scale of 0 to 100 where 0 is no effect and 100 is complete control; read-out: Ducksalad plant response rating", "summary_of_the_method": "as §1"}, "[4]": {"system": "giant foxtail (Setaria faberii)", "assay": "Test A preemergence", "conditions": "Setaria faberi, pre-emergence, 240 h, Preemergence", "summary_of_the_method": "(§2)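 Treatment is preemergence as a directed soil spray after planting, or postemergence at the one- to two-leaf stage, with test chemical in a non-phytotoxic solvent mixture plus surfactant. Plants stay in the greenhouse about 10 d before visual injury scoring on a 0 to 100 scale versus untreated controls.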"}, "Kochia (Kochia scoparia) [5]": {"system": "Kochia (Kochia scoparia)", "assay": "Test A preemergence", "conditions": "Bassia scoparia, pre-emergence, 240 h, Preemergence", "summary_of_the_method": "as §2"}, "[6]": {"system": "barnyardgrass (Echinochloa crus-galli)", "assay": "Test A preemergence", "conditions": "Echinochloa crus-galli, pre-emergence, 240 h, Preemergence", "summary_of_the_method": "as §2"}, "[7]": {"system": "ryegrass, Italian (Italian ryegrass, Lolium multiflorum)", "assay": "Test A preemergence", "conditions": "Lolium multiflorum, pre-emergence, 240 h, Preemergence", "summary_of_the_method": "as §2"}, "[8]": {"system": "pigweed (Amaranthus retroflexus)", "assay": "Test A preemergence", "conditions": "Amaranthus retroflexus, pre-emergence, 240 h, Preemergence"}, "[9]": {"system": "ragweed (common ragweed, Ambrosia elatior)", "assay": "Test A preemergence", "conditions": "Ambrosia artemisiifolia, pre-emergence, 240 h, Preemergence", "summary_of_the_method": "as §2"}, "[10]": {"system": "giant foxtail (Setaria faberii)", "assay": "Test A postemergence", "conditions": "Setaria faberi, post-emergence, 240 h, Postemergence, read-out: Plant response rating, Foxtail, Giant", "summary_of_the_method": "as §2"}, "Kochia (Kochia scoparia) [11]": {"system": "Kochia (Kochia scoparia)", "assay": "Test A postemergence", "conditions": "Bassia scoparia, post-emergence, 240 h, Postemergence, read-out: Plant response rating, Kochia", "summary_of_the_method": "as §2"}, "[12]": {"system": "wheat (Triticum aestivum)", "assay": "Test A postemergence", "conditions": "Triticum aestivum, post-emergence, 240 h, Postemergence, read-out: Plant response rating, Wheat", "summary_of_the_method": "as §2"}, "[13]": {"system": "barnyardgrass (Echinochloa crus-galli)", "assay": "Test A postemergence", "conditions": "Echinochloa crus-galli, post-emergence, 240 h, Postemergence, read-out: Plant response rating, Barnyardgrass", "summary_of_the_method": "as §2"}, "corn (Zea mays)": {"system": "corn (Zea mays)", "assay": "Test A postemergence", "conditions": "Zea mays, post-emergence, 240 h, Postemergence", "summary_of_the_method": "as §2"}, "[14]": {"system": "Galium (catchweed bedstraw, Galium aparine)", "assay": "Test A postemergence", "conditions": "Galium, post-emergence, 240 h, Postemergence, read-out: Plant response rating, Galium", "summary_of_the_method": "as §2"}, "[15]": {"system": "ryegrass, Italian (Italian ryegrass, Lolium multiflorum)", "assay": "Test A postemergence", "conditions": "Lolium multiflorum, post-emergence, 240 h, Postemergence, read-out: Plant response rating, Ryegrass, Italian", "summary_of_the_method": "as §2"}, "[16]": {"system": "pigweed (Amaranthus retroflexus)", "assay": "Test A postemergence", "conditions": "Amaranthus retroflexus, post-emergence, 240 h, Postemergence, read-out: Plant response rating, Pigweed", "summary_of_the_method": "as §2"}, "[17]": {"system": "ragweed (common ragweed, Ambrosia elatior)", "assay": "Test A postemergence", "conditions": "Ambrosia artemisiifolia, post-emergence, 240 h, Postemergence, read-out: Plant response rating, Ragweed", "summary_of_the_method": "as §2"}, "[18]": {"system": "blackgrass (Alopecurus myosuroides)", "assay": "Test A postemergence", "conditions": "Alopecurus myosuroides, post-emergence, 240 h, Postemergence, read-out: Plant response rating, Blackgrass", "summary_of_the_method": "as §2"}, "[19]": {"conditions": "125 g ai/ha, visual injury after approximately 10 d, 0 to 100 scale where 0 is no effect and 100 is complete control"}, "[20]": {"conditions": "31 g ai/ha, visual injury after approx. 10 d, 0 to 100 scale, 0 no effect, 100 complete control"}},
  "data": [
    {"smiles": "Cc1oncc1NC(=O)[C@H]1C(=O)N(C)C[C@@H]1c1cc(F)cc(F)c1", "note": "[Compound 970]", "values": [
      {"measurement": "pest or weed control at 250 g/ha", "setting": "[1]", "value": 0, "unit": "%"},
      {"measurement": "pest or weed control at 250 g/ha", "setting": "[2]", "value": 0, "unit": "%"},
      {"measurement": "pest or weed control at 250 g/ha", "setting": "rice (Oryra sativa)", "value": 0, "unit": "%"},
      {"measurement": "pest or weed control at 250 g/ha", "setting": "[3]", "value": 0, "unit": "%"},
      {"measurement": "pest or weed control at 125 g/ha", "setting": "[4]; 125 g ai/ha, visual injury rating after approximately 10 d, read-out: Foxtail, Giant plant response rating (0 to 100 scale, 0 is no effect, 100 is complete control)", "value": 80, "unit": "%"},
      {"measurement": "pest or weed control at 31 g/ha", "setting": "[4]; 31 g ai/ha, 0 to 100 scale (0 no effect, 100 complete control), read-out: Plant response rating, Foxtail, Giant", "value": 20, "unit": "%"},
      {"measurement": "pest or weed control at 125 g/ha", "setting": "Kochia (Kochia scoparia) [5]; 125 g ai/ha, visual injury rating after approximately 10 d, read-out: Kochia plant response rating (0 to 100 scale, 0 is no effect, 100 is complete control)", "value": 0, "unit": "%"},
      {"measurement": "pest or weed control at 31 g/ha", "setting": "Kochia (Kochia scoparia) [5]; 31 g ai/ha, 0 to 100 scale (0 no effect, 100 complete control), read-out: Plant response rating, Kochia", "value": 0, "unit": "%"},
      {"measurement": "pest or weed control at 125 g/ha", "setting": "[6]; 125 g ai/ha, visual injury rating after approximately 10 d, read-out: Barnyardgrass plant response rating (0 to 100 scale, 0 is no effect, 100 is complete control)", "value": 0, "unit": "%"},
      {"measurement": "pest or weed control at 31 g/ha", "setting": "[6]; 31 g ai/ha, 0 to 100 scale (0 no effect, 100 complete control), read-out: Plant response rating, Barnyardgrass", "value": 0, "unit": "%"},
      {"measurement": "pest or weed control at 125 g/ha", "setting": "[7]; 125 g ai/ha, visual injury rating after approximately 10 d, read-out: Ryegrass, Italian plant response rating (0 to 100 scale, 0 is no effect, 100 is complete control)", "value": 0, "unit": "%"},
      {"measurement": "pest or weed control at 31 g/ha", "setting": "[7]; 31 g ai/ha, 0 to 100 scale (0 no effect, 100 complete control), read-out: Plant response rating, Ryegrass, Italian", "value": 0, "unit": "%"},
      {"measurement": "pest or weed control at 125 g/ha", "setting": "[8]; 125 g ai/ha, visual injury rating after approximately 10 d, read-out: Pigweed plant response rating (0 to 100 scale, 0 is no effect, 100 is complete control)", "value": 0, "unit": "%"},
      {"measurement": "pest or weed control at 31 g/ha", "setting": "[8]; 31 g ai/ha, 0 to 100 scale (0 no effect, 100 complete control), read-out: Plant response rating, Pigweed", "value": 0, "unit": "%"},
      {"measurement": "pest or weed control at 125 g/ha", "setting": "[9]; 125 g ai/ha, visual injury rating after approximately 10 d, read-out: Ragweed plant response rating (0 to 100 scale, 0 is no effect, 100 is complete control)", "value": 0, "unit": "%"},
      {"measurement": "pest or weed control at 31 g/ha", "setting": "[9]; 31 g ai/ha, 0 to 100 scale (0 no effect, 100 complete control), read-out: Plant response rating, Ragweed", "value": 0, "unit": "%"},
      {"measurement": "pest or weed control at 125 g/ha", "setting": "[10]; [19]", "value": 0, "unit": "%"},
      {"measurement": "pest or weed control at 31 g/ha", "setting": "[10]; [20]", "value": 0, "unit": "%"},
      {"measurement": "pest or weed control at 125 g/ha", "setting": "Kochia (Kochia scoparia) [11]; [19]", "value": 0, "unit": "%"},
      {"measurement": "pest or weed control at 31 g/ha", "setting": "Kochia (Kochia scoparia) [11]; [20]", "value": 0, "unit": "%"},
      {"measurement": "plant injury at 125 g/ha", "setting": "[12]; [19]", "value": 0, "unit": "%"},
      {"measurement": "plant injury at 31 g/ha", "setting": "[12]; [20]", "value": 0, "unit": "%"},
      {"measurement": "pest or weed control at 125 g/ha", "setting": "[13]; [19]", "value": 0, "unit": "%"},
      {"measurement": "pest or weed control at 31 g/ha", "setting": "[13]; [20]", "value": 0, "unit": "%"},
      {"measurement": "Corn plant response rating (crop injury, 0 = no effect, 100 = complete kill) at 125 g/ha", "setting": "corn (Zea mays); [19]", "value": 0, "unit": "%"},
      {"measurement": "Corn plant response rating (crop injury, 0 = no effect, 100 = complete kill) at 31 g/ha", "setting": "corn (Zea mays); [20]", "value": 0, "unit": "%"},
      {"measurement": "pest or weed control at 125 g/ha", "setting": "[14]; [19]", "value": 0, "unit": "%"},
      {"measurement": "pest or weed control at 31 g/ha", "setting": "[14]; [20]", "value": 0, "unit": "%"},
      {"measurement": "pest or weed control at 125 g/ha", "setting": "[15]; [19]", "value": 0, "unit": "%"},
      {"measurement": "pest or weed control at 31 g/ha", "setting": "[15]; [20]", "value": 0, "unit": "%"},
      {"measurement": "pest or weed control at 125 g/ha", "setting": "[16]; [19]", "value": 0, "unit": "%"},
      {"measurement": "pest or weed control at 31 g/ha", "setting": "[16]; [20]", "value": 0, "unit": "%"},
      {"measurement": "pest or weed control at 125 g/ha", "setting": "[17]; [19]", "value": 0, "unit": "%"},
      {"measurement": "pest or weed control at 31 g/ha", "setting": "[17]; [20]", "value": 0, "unit": "%"},
      {"measurement": "pest or weed control at 125 g/ha", "setting": "[18]; [19]", "value": 0, "unit": "%"},
      {"measurement": "pest or weed control at 31 g/ha", "setting": "[18]; [20]", "value": 0, "unit": "%"}
    ]}
  ]
}
